Results as given in US9757378B2, “Methods to modulate acute myeloid leukemia stem/progenitor cell expansion and/or differentiation” (UNIVERSITE DE MONTREAL, priority 2013, dated 2017).
Entries after “also recorded” stand apart in the source; their conditions may differ.

How the values were obtained:
primary human AML cells [1] = assay: Secondary screen: dose response, five serial dilutions (CD34/CD15 flow cytometry); type: cell-based; parameters: key to 2ndary screen criteria fulfilled: 0 = no; 1 = yes
Method: In the primary screen cells were plated in transparent 384-wellplates (Greiner, 781182) at a density of 5,000 cells in 50 μl final volume per well. Compounds were tested at 2 μM (commercial libraries) or 1 μg/ml (Medicinal Chemistry Facility, IRIC). […] For validation experiments AML cells were grown in 384-well plates with 3-8 replicates per condition.
Flow cytometry was performed on an LSR™ II cytometer equipped with an HTS-device (BD Bioscience, Primary and Secondary screens and in vitro validation experiments) or on a BD Canto™ II cytometer (BD Bioscience, Xenotransplantation and CellTrace Violet™ experiments). Cells were stained for 30 minutes at 4° C. protected from light if not otherwise indicated (CellTrace Violet™ staining). The following flow cytometry-antibodies were used: CD45 Pacific Blue (BioLegend 304029), CD33 PE (BD Bioscience 555450), CD34 APC (BD Bioscience 555824), CD3 FITC (BD Bioscience 555332), CD19 PE-Cy7 (BD Bioscience 557835), CD15 PE (BD Bioscience 555401), and anti-mouse CD45.1 APC-efluor 730 (eBioscience 47-0453-82). CD34 intensities in flow cytometry plots were set at high levels on day 0 to allow tracing of non-predictable decreases of intensities during 7 days in culture.

[2] = test system: AhR target genes CYP1A1, CYP1B1 and AHRR; assay: AhR target gene expression by q-RT-PCR in AML cells; type: cell-based, human
Source text: RNA was isolated from primary AML samples using Trizol® reagent according to the manufacturer's instructions (Invitrogen/Life Technologies) and reverse transcribed into cDNA using MMLV reverse transcriptase and random primers. 2× Fast Master Mix® containing primers described below and probes from the Universal Probe Library® (Roche Diagnostics) were used for q-RT-PCR reactions which were amplified in 2-3 technical replicates on an ABI 7900HT Fast Real-Time® PCR System (Applied Biosystems/Life Technologies). Analysis was done with SDS 2.2.2 software (Applied Biosystems/Life Technologies) using the comparative delta CT method with GAPDH as reference gene. The following primers and probes were used: GAPDH: 5′-[…]-3′ (forward, SEQ ID NO:7), 5′-[…]-3′ (reverse, SEQ ID NO:8), probe 60, CYP1A1: 5′-[…]-3′ (forward, SEQ ID NO:9), 5′-[…]-3′ (reverse, SEQ ID NO:10), probe 59, CYP1B1: 5′-[…]-3′ (forward, SEQ ID NO:11), 5′-[…]-3′ (reverse, SEQ ID NO:12), probe 20, AHRR: 5′-[…]-3′ (forward, SEQ ID NO:13), 5′-[…]-3′ (reverse, SEQ ID NO:14), probe 72, AHR: 5′-[…]-3′ (forward, SEQ ID NO:15), 5′-[…]-3′ (reverse, SEQ ID NO:16), probe 33.

[3] = test system: primary human AML specimens; assay: Validation: 7-day serum-free culture of diverse AML specimens (CD34+CD15− cells); type: cell-based; conditions: for preventing AML cell differentiation in vitro, compound alone: 17 AML specimens, UM729 1 μM
Method: The following flow cytometry-antibodies were used: […] Statistical analyses of all in vitro experiments were done using Graphpad Prism v 6.01. […] Normalized CD34^+CD15^- percentages (td7/t0) were analyzed by Wilcoxon matched pairs signed rank test. Bars and error bars represent means and standard deviations (SD), or standard errors of the mean (SEM), as specified. Extreme limiting dilution analysis software (Hu, […]: extreme limiting dilution analysis for comparing depleted and enriched populations in stem cell and other assays. Journal of immunological methods 347, 70-78 (2009); http://bioinf.wehi.edu.au/software/elda/) was used to estimate LSC frequencies with 95% confidence intervals. In cases where all mice were positive or negative, one-sided confidence intervals were calculated. Differences in LSC frequencies between culture conditions were analyzed by Chi-square test.

AML cells (04H112) = assay: Cell proliferation assay (CellTrace Violet); type: cell-based, human; conditions: 4-day culture; SR1 500 nM, UM729 1 μM
Method: CellTrace™ Violet (Invitrogen/Life Technologies C34557) was added at a final concentration of 3 μM to cell suspensions (10^7 cells/ml) containing SR1 (500 nM), UM729 (1 μM), both compounds, or vehicle DMSO (0.1%). CellTrace™ Violet labeled cells were stained with surface antibodies against human CD3, CD19, CD34, and CD33 on day 0, day 2, and day 4 prior to analysis on a BD Canto™ II flow cytometer. Data were analyzed using FlowJo™ version 7.6.5.

[4] = test system: leukemia stem cells (LSC) of primary human AML samples; assay: Xenotransplantation of 4-day cultured AML cells into NSG mice (engraftment, LSC frequency); type: in vivo
Source text: NOD.Cg-Prkdc^scid II2rg^tm1Wjl/SzJ (NSG) mice were purchased from Jackson Laboratory® (Bar Harbor, Me.) and bred in a pathogen-free animal facility. All AML samples were transplanted via the tail vein into 8-12 week old sublethally irradiated (250 cGy, ^137Cs-gamma source) NSG mice. […] On day 4, equivalents of the three highest to cell doses from each of the 3-4 flasks per condition were transplanted. The technician injecting fresh and cultured cells in NSG mice was not informed about the experimental conditions. […] On average 150,000 gated events were acquired. Mice were considered positive if human cells represented >1% of the bone marrow cell population. Mice were excluded only in case of obvious non-leukemia related death (e.g. first two weeks after irradiation). To discriminate between engraftment of leukemic and normal cells present in unsorted patient samples only recipients with proportions of CD45^+CD33^+ or CD45^+CD34^+ cells higher than proportions of CD19^+CD33^- or CD3^+ were considered to harbor cells of leukemic origin. Statistical analyses of all in vitro experiments were done using Graphpad Prism v 6.01. […] Normalized CD34^+CD15^- percentages (td7/t0) were analyzed by Wilcoxon matched pairs signed rank test. Bars and error bars represent means and standard deviations (SD), or standard errors of the mean (SEM), as specified. Extreme limiting dilution analysis software (Hu, […]: extreme limiting dilution analysis for comparing depleted and enriched populations in stem cell and other assays. Journal of immunological methods 347, 70-78 (2009); http://bioinf.wehi.edu.au/software/elda/) was used to estimate LSC frequencies with 95% confidence intervals. In cases where all mice were positive or negative, one-sided confidence intervals were calculated. Differences in LSC frequencies between culture conditions were analyzed by Chi-square test.

AML 05H163 cells = assay: 5-day culture of AML 05H163 with AhR suppressors plus UM729; type: cell-based, human; conditions: 05H163, 5 days
Method: AML cells were thawed in 37° C. water bath and 1:10 diluted in prewarmed Iscove's modified Dulbecco's medium (IMDM) containing 20% FBS and DNase 100 μg/ml. Cells were cultured in IMDM supplemented with 15% BIT (bovine serum albumin, insulin, transferrin, Stem Cell Technologies #09500), SCF 100 ng/ml (Shenandoah #100-04), FLT3L 50 ng/ml (Shenandoah #100-21), II-3 20 ng/ml (Shenandoah #100-80), G-CSF 20 ng/ml (Shenandoah #100-72), β-mercaptoethanol (10^−4M), gentamicin (50 μg/ml) and ciprofloxacin (10 μg/ml). […] When compounds were added to the culture medium, final DMSO concentrations were 0.1% in all in vitro experiments and 0.01% when cultured cells were transplanted into NSG-mice.
Flow cytometry was performed on an LSR™ II cytometer equipped with an HTS-device (BD Bioscience, Primary and Secondary screens and in vitro validation experiments) or on a BD Canto™ II cytometer (BD Bioscience, Xenotransplantation and CellTrace Violet™ experiments). Cells were stained for 30 minutes at 4° C. protected from light if not otherwise indicated (CellTrace Violet™ staining). The following flow cytometry-antibodies were used: CD45 Pacific Blue (BioLegend 304029), CD33 PE (BD Bioscience 555450), CD34 APC (BD Bioscience 555824), CD3 FITC (BD Bioscience 555332), CD19 PE-Cy7 (BD Bioscience 557835), CD15 PE (BD Bioscience 555401), and anti-mouse CD45.1 APC-efluor 730 (eBioscience 47-0453-82). […]

AML cells = assay: Morphology analysis (cytospins, Wright stain); type: cell-based, human; conditions: 4-day culture; SR1 500 nM, UM729 1 μM
Method: 2-4×10^5 fresh and cultured cells were centrifuged onto cytospin slides, stained with Wright stain solution for 10 minutes and washed with PBS and water prior to analysis. Pictures of cytospins were taken with a Canon® EOS 5D camera connected to a Zeiss® Axio Imager microscope (40× objective).

primary human AML cells [5] = assay: Primary screen: differentiation of primary human AML cells in vitro (CD34/CD15, HTS flow cytometry)
Method: AML cells were thawed in 37° C. water bath and 1:10 diluted in prewarmed Iscove's modified Dulbecco's medium (IMDM) containing 20% FBS and DNase 100 μg/ml. […] When compounds were added to the culture medium, final DMSO concentrations were 0.1% in all in vitro experiments and 0.01% when cultured cells were transplanted into NSG-mice.
Compounds were tested at 2 μM (commercial libraries) or 1 μg/ml (Medicinal Chemistry Facility, IRIC). […] For validation experiments AML cells were grown in 384-well plates with 3-8 replicates per condition.
Flow cytometry was performed on an LSR™ II cytometer equipped with an HTS-device (BD Bioscience, Primary and Secondary screens and in vitro validation experiments) or on a BD Canto™ II cytometer (BD Bioscience, Xenotransplantation and CellTrace Violet™ experiments). Cells were stained for 30 minutes at 4° C. protected from light if not otherwise indicated (CellTrace Violet™ staining). […] CD34 intensities in flow cytometry plots were set at high levels on day 0 to allow tracing of non-predictable decreases of intensities during 7 days in culture.

human AHR = target: T1, human AHR (Homo sapiens, UniProt P35869); conditions: Mezrich et al. 2012; cited from earlier work
T1 sequence (P35869 11-848): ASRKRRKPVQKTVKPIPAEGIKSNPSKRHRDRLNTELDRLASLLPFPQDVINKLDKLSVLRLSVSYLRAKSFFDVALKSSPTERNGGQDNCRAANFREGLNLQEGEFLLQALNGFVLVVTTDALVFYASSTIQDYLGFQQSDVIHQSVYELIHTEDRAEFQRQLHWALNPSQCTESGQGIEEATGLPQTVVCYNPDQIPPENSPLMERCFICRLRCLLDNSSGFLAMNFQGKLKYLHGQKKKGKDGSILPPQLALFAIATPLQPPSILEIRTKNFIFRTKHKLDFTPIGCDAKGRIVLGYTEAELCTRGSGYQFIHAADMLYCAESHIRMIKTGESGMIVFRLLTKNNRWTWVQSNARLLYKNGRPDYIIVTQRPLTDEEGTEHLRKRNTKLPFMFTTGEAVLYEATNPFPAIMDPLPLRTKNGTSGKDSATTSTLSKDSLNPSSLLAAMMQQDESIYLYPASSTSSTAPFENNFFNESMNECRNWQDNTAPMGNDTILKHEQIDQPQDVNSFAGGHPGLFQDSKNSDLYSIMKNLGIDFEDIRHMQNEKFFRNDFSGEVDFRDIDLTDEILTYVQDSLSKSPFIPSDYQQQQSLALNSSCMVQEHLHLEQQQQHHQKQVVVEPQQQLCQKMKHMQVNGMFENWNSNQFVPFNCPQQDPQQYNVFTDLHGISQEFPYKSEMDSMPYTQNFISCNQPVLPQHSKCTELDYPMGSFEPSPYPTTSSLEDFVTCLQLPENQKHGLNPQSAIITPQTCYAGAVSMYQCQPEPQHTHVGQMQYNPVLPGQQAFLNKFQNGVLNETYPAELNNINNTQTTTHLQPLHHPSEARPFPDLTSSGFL

[6] = at optimal concentration, compared to DMSO

SMILES: COC(=O)c1ccc2c(c1)[nH]c1ncnc(NCCCN3CCCCC3)c12 [UM0125729, methyl 4-((3-(piperidin-1-yl)propyl)amino)-9H-pyrimido[4,5-b]indole-7-carboxylate]
- % increase CD34+CD15− (%) 2ndary screen (primary human AML cells [1]; [6]): 205.07%
- % increase CD34+CD15− (cell counts) 2ndary screen (primary human AML cells [1]; [6]): 206.53%
- 2ndary screen criteria fulfilled (primary human AML cells [1]; ≧50% increase CD34+CD15− (%) and cell counts and ≧50% gated cells in at least one dose): 1
- effect on AhR target genes (CYP1A1, CYP1B1, AHRR) expression ([2]; 24 h incubation, compared to DMSO, GAPDH control): no effect
- effect of adding UM729 to AhR suppressor-supplemented cultures ([3]; 7-day culture, CD34+CD15− percentage): enhanced the effect of SR1 in all specimens
- preventing AML cell differentiation in vitro, compound alone ([3]; 7-day culture): most samples responded
- CD34+CD38− and CD34+CD38+ compartments, SR1 and UM729 compared to DMSO ([3]; 7 days in culture): benefitted
- distribution of cell generations / number of early cell divisions (AML cells (04H112)): did not affect
- effect of adding UM729 to SR1- (or C05-) supplemented cultures on engraftment ([4]; 4-day culture, NSG mice, most samples): increased engraftment levels, but not LSC frequency
- absolute numbers of CD34+CD15− cells, UM729 added compared to AhR suppressors alone (AML 05H163 cells): higher
- typical morphologic signs of differentiation on cytospins (AML cells): rarely seen
- percent gated cells (viability) (primary human AML cells [5]; 2 μM (commercial libraries) or 1 μg/ml (IRIC)): 78.40%
- % increase CD34+ (cell counts) (primary human AML cells [5]; compared to DMSO): 26.44%
- % increase CD34+CD15− (cell counts) (primary human AML cells [5]; compared to DMSO): 63.00%
- % increase CD34+CD15− (%) (primary human AML cells [5]; compared to DMSO ((compound − DMSO)/DMSO*100)): 47.24%

SMILES: CC(C)n1cnc2c(NCCc3ccc(O)cc3)nc(-c3csc4ccccc34)nc21 [SR1, StemRegenin 1]
- upregulation of AhR target genes AHRR and CYP1A1 upon 24 h in vitro culture ([2]; SR1 500 nM, TCDD 0.1, 1, 10 nM, n=13 samples): effectively antagonized
- samples with net expansion of CD34+CD15− cells ([3]; 7-day culture, compared to input): 15/16
- increase in CD34+CD15− cell numbers ([3]; 7-day culture, maximum (AML 08H112)): up to 42 fold
- impact on CD34+CD15− cell numbers ([3]; 7-day culture, vs DMSO, P<0.0001 paired t-test): significant impact
- median CD34+CD15− percentage relative to uncultured cells ([3]; 7-day culture, SR1 0.75-1 μM, C05 2 μM, DMSO 19% / 22%): 72%
- preventing AML cell differentiation in vitro, compound alone ([3]; 7-day culture): superior to UM729
- distribution of cell generations / number of early cell divisions (AML cells (04H112)): no difference
- total viable cells per flask (median±SD) following 4-day culture ([4]; cultures before transplantation, DMSO 6.2±3×10^6): 4.8±2×10^6
- engraftment (average) ([4]; sample 05H163, progeny of 2×10^6 input cells, SR1-supplemented culture): 50%
- supporting LSC functional activity, SR1 alone versus UM729 alone ([4]; six samples, engraftment in NSG mice): superior to UM729 in supporting LSC functional activity in four of six samples; also recorded: equally efficacious in two samples
- engraftment levels compared to control DMSO ([4]; six samples, 4-day culture with SR1 0.5-1 μM, NSG mice): higher engraftment levels

SMILES: Cc1cc(C)c(/C=C2\C(=O)Nc3ccccc32)[nH]1 [SU5416, 3-(3,5-dimethyl-1H-pyrrol-2-ylmethylene)-1,3-dihydro-indole-2-one]
- activation of the human AHR (human AHR): potency approaching TCDD
